# Measured values reported in ChEMBL document CHEMBL5344485, “Discovery of CRN04894: A Novel Potent Selective MC2R Antagonist” (ACS Med Chem Lett, 2024).
# How the values were obtained:
# [1] = target: Adrenocorticotropic hormone receptor (Homo sapiens, UniProt Q01718)
# Description: Displacement of [[125I]-Tyr23]-ACTH (1-39) from human MC2R incubated for 1.5 hrs by Topcount scintillation counting method
# [2] = in vivo; conditions: rat, po, 10 mg/kg
# Description: Half life in rat at 10 mg/kg, po
# [3] = in vivo; conditions: rat, po, 10 mg/kg; remark: listed apart in the source
# Description: AUClast in rat at 10 mg/kg, po
# [4] = in vitro; conditions: human, liver microsomes
# Description: Stability in human liver microsomes assessed as half life
# [5] = in vitro; conditions: rat, liver microsomes
# Description: Stability in rat liver microsomes assessed as half life
# [6] = target: Melanocyte-stimulating hormone receptor (Homo sapiens, UniProt Q01726)
# Melanocyte-stimulating hormone receptor, sequence (Q01726 whole entry): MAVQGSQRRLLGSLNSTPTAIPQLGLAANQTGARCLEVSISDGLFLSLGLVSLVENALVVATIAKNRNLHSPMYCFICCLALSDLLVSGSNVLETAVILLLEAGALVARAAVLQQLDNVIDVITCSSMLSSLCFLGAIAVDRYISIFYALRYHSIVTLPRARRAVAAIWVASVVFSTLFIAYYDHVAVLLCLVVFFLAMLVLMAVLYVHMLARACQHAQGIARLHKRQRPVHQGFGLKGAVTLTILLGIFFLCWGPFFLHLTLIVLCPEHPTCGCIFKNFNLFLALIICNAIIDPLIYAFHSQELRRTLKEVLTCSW
# [7] = target: Melanocortin receptor 3 (Homo sapiens, UniProt P41968)
# Melanocortin receptor 3, sequence (P41968 whole entry): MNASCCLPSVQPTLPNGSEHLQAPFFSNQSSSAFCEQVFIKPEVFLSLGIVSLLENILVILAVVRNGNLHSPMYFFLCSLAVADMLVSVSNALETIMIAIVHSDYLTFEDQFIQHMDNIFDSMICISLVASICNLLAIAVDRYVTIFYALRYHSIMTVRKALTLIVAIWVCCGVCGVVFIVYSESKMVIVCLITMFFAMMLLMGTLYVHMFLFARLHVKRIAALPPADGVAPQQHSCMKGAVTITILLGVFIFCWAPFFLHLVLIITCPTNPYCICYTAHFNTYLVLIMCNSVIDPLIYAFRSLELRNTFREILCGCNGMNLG
# [8] = target: Melanocortin receptor 4 (Homo sapiens, UniProt P32245)
# Melanocortin receptor 4, sequence (P32245 whole entry): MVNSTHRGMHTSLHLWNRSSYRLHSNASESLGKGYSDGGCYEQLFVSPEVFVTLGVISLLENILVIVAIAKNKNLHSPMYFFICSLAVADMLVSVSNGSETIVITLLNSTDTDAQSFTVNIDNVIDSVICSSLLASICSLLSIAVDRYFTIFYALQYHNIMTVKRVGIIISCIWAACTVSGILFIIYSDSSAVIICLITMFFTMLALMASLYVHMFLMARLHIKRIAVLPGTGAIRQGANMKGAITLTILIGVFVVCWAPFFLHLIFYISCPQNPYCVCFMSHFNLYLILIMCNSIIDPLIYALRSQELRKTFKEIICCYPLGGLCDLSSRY
# [9] = target: Melanocortin receptor 5 (Homo sapiens, UniProt P33032)
# Melanocortin receptor 5, sequence (P33032 whole entry): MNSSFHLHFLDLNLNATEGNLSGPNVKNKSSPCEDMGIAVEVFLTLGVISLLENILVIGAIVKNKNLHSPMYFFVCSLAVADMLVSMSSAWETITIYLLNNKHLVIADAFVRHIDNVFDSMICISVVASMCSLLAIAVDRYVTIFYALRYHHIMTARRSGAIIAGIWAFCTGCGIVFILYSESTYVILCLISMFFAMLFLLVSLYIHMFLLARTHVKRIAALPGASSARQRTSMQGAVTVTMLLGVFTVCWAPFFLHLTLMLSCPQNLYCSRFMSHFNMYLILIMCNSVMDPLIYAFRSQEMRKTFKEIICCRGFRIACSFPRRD
# [10] = target: 5-hydroxytryptamine receptor 1B (Homo sapiens, UniProt P28222)
# 5-hydroxytryptamine receptor 1B, sequence (P28222 whole entry): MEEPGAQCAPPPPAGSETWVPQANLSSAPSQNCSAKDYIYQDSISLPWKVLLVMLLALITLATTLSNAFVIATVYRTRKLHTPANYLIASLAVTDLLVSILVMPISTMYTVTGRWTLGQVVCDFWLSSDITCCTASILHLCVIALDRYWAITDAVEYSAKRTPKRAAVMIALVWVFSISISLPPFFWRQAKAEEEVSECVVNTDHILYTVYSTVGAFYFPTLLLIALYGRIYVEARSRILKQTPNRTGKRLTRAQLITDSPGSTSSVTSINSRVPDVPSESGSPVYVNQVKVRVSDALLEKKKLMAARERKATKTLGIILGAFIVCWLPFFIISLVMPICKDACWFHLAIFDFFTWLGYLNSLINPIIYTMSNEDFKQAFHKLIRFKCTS
# Description: Antagonist activity at 5-HT1B (unknown origin)
# [11] = target: Cytochrome P450 2C9 (Homo sapiens, UniProt P11712)
# Cytochrome P450 2C9, sequence (P11712 whole entry): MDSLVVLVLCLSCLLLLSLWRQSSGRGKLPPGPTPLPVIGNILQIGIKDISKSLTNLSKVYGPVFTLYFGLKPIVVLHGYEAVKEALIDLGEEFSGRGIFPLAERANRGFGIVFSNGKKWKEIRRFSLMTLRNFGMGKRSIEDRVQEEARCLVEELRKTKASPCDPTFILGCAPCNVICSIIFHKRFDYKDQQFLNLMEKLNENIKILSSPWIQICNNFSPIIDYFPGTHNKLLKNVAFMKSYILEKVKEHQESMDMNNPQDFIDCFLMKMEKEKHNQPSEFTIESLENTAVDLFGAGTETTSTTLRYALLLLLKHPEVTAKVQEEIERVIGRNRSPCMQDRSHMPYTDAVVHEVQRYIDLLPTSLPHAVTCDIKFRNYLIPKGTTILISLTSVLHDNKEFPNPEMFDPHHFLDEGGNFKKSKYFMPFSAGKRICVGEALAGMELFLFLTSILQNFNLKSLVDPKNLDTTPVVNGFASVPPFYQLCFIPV
# Description: Inhibition of CYP2C9 (unknown origin)
# [12] = target: Cytochrome P450 2C19 (Homo sapiens, UniProt P33261)
# Cytochrome P450 2C19, sequence (P33261 whole entry): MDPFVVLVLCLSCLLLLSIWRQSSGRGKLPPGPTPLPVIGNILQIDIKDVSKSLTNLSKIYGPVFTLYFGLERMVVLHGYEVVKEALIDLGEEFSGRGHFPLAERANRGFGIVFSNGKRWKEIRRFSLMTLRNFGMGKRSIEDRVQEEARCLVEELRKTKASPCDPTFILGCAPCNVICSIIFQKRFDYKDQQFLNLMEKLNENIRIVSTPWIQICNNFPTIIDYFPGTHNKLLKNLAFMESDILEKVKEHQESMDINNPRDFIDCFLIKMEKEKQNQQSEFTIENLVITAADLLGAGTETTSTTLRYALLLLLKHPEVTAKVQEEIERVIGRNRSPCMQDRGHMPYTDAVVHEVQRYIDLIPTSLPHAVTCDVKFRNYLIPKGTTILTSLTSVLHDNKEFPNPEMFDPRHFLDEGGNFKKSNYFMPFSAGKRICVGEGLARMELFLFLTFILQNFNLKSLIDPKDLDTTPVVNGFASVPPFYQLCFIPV
# Description: Inhibition of CYP2C19 (unknown origin)
# [13] = target: Cytochrome P450 2D6 (Homo sapiens, UniProt P10635)
# Cytochrome P450 2D6, sequence (P10635 whole entry): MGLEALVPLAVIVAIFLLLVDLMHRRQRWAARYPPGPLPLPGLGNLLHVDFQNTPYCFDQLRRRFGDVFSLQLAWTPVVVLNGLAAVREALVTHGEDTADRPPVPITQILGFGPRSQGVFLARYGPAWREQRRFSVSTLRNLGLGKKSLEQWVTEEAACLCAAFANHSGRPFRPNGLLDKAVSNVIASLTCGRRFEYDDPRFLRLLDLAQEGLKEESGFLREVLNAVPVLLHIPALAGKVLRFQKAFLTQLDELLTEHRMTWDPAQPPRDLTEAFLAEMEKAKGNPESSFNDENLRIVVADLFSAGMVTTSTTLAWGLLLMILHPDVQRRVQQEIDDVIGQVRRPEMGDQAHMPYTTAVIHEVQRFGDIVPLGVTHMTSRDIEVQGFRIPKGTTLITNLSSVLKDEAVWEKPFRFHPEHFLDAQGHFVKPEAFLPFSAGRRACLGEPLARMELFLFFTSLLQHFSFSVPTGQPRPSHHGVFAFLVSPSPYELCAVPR
# Description: Time dependent inhibition of CYP2D6 (unknown origin)
# [14] = target: Cytochrome P450 3A4 (Homo sapiens, UniProt P08684)
# Cytochrome P450 3A4, sequence (P08684 whole entry): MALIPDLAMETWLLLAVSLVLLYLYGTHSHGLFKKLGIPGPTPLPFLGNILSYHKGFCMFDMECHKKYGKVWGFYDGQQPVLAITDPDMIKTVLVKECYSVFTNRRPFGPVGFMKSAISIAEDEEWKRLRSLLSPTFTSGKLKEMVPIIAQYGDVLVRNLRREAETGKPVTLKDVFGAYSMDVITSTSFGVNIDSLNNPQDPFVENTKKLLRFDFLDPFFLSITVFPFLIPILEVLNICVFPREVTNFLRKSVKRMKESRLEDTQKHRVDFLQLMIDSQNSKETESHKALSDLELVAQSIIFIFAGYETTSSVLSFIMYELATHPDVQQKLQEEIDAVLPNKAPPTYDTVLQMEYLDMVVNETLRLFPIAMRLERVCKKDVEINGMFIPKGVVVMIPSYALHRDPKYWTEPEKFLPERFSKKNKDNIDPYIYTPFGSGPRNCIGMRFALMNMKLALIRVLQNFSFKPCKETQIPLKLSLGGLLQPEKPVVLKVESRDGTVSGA
# Description: Time dependent inhibition of CYP3A4 (unknown origin)
# [15] = in vivo; conditions: rat, iv, 5 mg/kg
# Description: Clearance in rat at 5 mg/kg, iv
# [16] = in vivo; conditions: dog, iv, 5 mg/kg
# Description: Clearance in dog at 5 mg/kg, iv
# [17] = in vivo; conditions: rat, iv, 5 mg/kg; remark: listed apart in the source
# Description: Volume of distribution at steady state in rat at 5 mg/kg, iv
# [18] = in vivo; conditions: dog, iv, 5 mg/kg; remark: listed apart in the source
# Description: Volume of distribution at steady state in dog at 5 mg/kg, iv
# [19] = in vivo; conditions: rat, iv, 5 mg/kg; remark: listed apart in the source
# Description: Half life in rat at 5 mg/kg, iv
# [20] = in vivo; conditions: dog, iv, 5 mg/kg; remark: listed apart in the source
# Description: Half life in dog at 5 mg/kg, iv
# [21] = in vivo; conditions: rat, po, 5 mg/kg
# Description: Cmax in rat at 5 mg/kg, po
# [22] = in vivo; conditions: dog, po, 5 mg/kg
# Description: Cmax in dog at 5 mg/kg, po
# [23] = in vivo; conditions: rat, po, 5 mg/kg; remark: listed apart in the source
# Description: AUClast in rat at 5 mg/kg, po
# [24] = in vivo; conditions: dog, po, 5 mg/kg; remark: listed apart in the source
# Description: AUClast in dog at 5 mg/kg, po
# [25] = in vivo; conditions: rat, po, 5 mg/kg; remark: listed apart in the source
# Description: Oral bioavailability in rat at 5 mg/kg
# [26] = in vivo; conditions: dog, po, 5 mg/kg; remark: listed apart in the source
# Description: Oral bioavailability in dog at 5 mg/kg
# [27] = in vivo; conditions: Sprague-Dawley, rat, plasma, po, 3 mg/kg
# Description: Drug concentration in Sprague-Dawley rat plasma at 3 mg/kg, po administered as single dose and stimulated with ACTH for 1 hr measured after 0.5 hr
# [28] = in vivo; conditions: Sprague-Dawley, rat, plasma, po, 30 mg/kg
# Description: Drug concentration in Sprague-Dawley rat plasma at 30 mg/kg, po administered as single dose and stimulated with ACTH for 1 hr measured after 0.5 hr
# [29] = in vivo; conditions: Sprague-Dawley, rat, plasma, po, 3 mg/kg; remark: listed apart in the source
# Description: Drug concentration in Sprague-Dawley rat plasma at 3 mg/kg, po administered as single dose and stimulated with ACTH for 1 hr measured after 1.5 hrs
# [30] = in vivo; conditions: Sprague-Dawley, rat, plasma, po, 30 mg/kg; remark: listed apart in the source
# Description: Drug concentration in Sprague-Dawley rat plasma at 30 mg/kg, po administered as single dose and stimulated with ACTH for 1 hr measured after 1.5 hrs
# [31] = in vivo; conditions: Sprague-Dawley, rat, plasma, po, 3 mg/kg; remark: listed apart in the source
# Description: Drug concentration in Sprague-Dawley rat plasma at 3 mg/kg, po administered as single dose and stimulated with ACTH for 4 hrs measured after 0.5 hrs
# [32] = in vivo; conditions: Sprague-Dawley, rat, plasma, po, 30 mg/kg; remark: listed apart in the source
# Description: Drug concentration in Sprague-Dawley rat plasma at 30 mg/kg, po administered as single dose and stimulated with ACTH for 4 hrs measured after 0.5 hrs
# [33] = in vivo; conditions: Sprague-Dawley, rat, plasma, po, 3 mg/kg; remark: listed apart in the source
# Description: Drug concentration in Sprague-Dawley rat plasma at 3 mg/kg, po administered as single dose and stimulated with ACTH for 4 hrs measured after 1.5 hrs
# [34] = in vivo; conditions: Sprague-Dawley, rat, plasma, po, 30 mg/kg; remark: listed apart in the source
# Description: Drug concentration in Sprague-Dawley rat plasma at 30 mg/kg, po administered as single dose and stimulated with ACTH for 4 hrs measured after 1.5 hrs
# [35] = in vivo; conditions: Sprague-Dawley, rat, plasma, po, 3 mg/kg; remark: listed apart in the source
# Description: Drug concentration in Sprague-Dawley rat plasma at 3 mg/kg, po administered as single dose and stimulated with ACTH for 24 hrs measured after 0.5 hrs
# [36] = in vivo; conditions: Sprague-Dawley, rat, plasma, po, 30 mg/kg; remark: listed apart in the source
# Description: Drug concentration in Sprague-Dawley rat plasma at 30 mg/kg, po administered as single dose and stimulated with ACTH for 24 hrs measured after 0.5 hrs
# [37] = in vivo; conditions: Sprague-Dawley, rat, plasma, po, 30 mg/kg; remark: listed apart in the source
# Description: Drug concentration in Sprague-Dawley rat plasma at 30 mg/kg, po administered as single dose and stimulated with ACTH for 24 hrs measured after 1.5 hrs
# [38] = in vivo; conditions: Sprague-Dawley, rat, plasma, po, 30 mg/kg; remark: listed apart in the source
# Description: Drug concentration in Sprague-Dawley rat plasma at 30 mg/kg, po administered as single dose and stimulated with ACTH for 48 hrs measured after 0.5 hrs
# [39] = target: L-type calcium channel (Homo sapiens, UniProt O60840+Q01668+Q13698+Q13936); experiment: in vitro
# Description: Inhibition of L-type calcium channel (unknown origin) at 10 uM relative to control
# [40] = in vitro; conditions: dog, MDCK
# Description: Apparent permeability in MDCK cells
# [41] = tested on: MDR1; experiment: in vitro; conditions: dog, MDCK-MDR1
# Description: Efflux ratio of apparent permeability across basolateral to apical over apical to basolateral in MDCK-MDR1 cells
# [42] = in vitro; conditions: human, plasma
# Description: Plasma protein binding in human at 1 uM
# [43] = in vitro; conditions: rat, plasma
# Description: Plasma protein binding in rat at 1 uM
# [44] = in vitro; conditions: dog, plasma
# Description: Plasma protein binding in dog at 1 uM
# [45] = in vivo; conditions: rat, po, 10 mg/kg; remark: listed apart in the source
# [46] = in vivo; conditions: rat, po, 10 mg/kg; remark: listed apart in the source
# [47] = in vivo; conditions: rat, po, 10 mg/kg; remark: listed apart in the source
# Adrenocorticotropic hormone receptor, sequence (Q01718 whole entry): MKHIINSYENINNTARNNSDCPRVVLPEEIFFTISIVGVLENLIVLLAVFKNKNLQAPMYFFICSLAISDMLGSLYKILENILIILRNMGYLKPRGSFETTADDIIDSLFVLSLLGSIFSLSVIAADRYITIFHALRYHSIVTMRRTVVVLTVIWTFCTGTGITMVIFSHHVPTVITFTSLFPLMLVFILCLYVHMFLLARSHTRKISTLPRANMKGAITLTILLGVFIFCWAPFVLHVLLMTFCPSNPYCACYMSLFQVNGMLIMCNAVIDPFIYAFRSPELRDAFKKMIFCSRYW
compound,measurement,setting,value
CC[C@@H]1CN(C(=O)c2ccc(C(F)(F)F)cc2Cl)CCN1c1ccc(-c2ccccc2Cl)cc1C(=O)NCCN,Ki,[1],21 nM
CCOc1ncccc1-c1ccc(N2CCN(C(=O)c3ccc(Cl)cc3C(F)(F)F)C[C@H]2CC)c(C(=O)NCCN(C)C)c1,Ki,[1],1.5 nM
CCOc1ncccc1-c1ccc(N2CCN(C(=O)c3ccc(Cl)cc3C(F)(F)F)C[C@H]2CC)c(C(=O)NCCN(C)C)c1F,Ki,[1],0.9 nM
CCOc1ncccc1-c1ccc(N2CCN(C(=O)c3ccc(Cl)cc3C(F)(F)F)C[C@H]2CC)c(C(=O)N[C@@H]2CCNC2)n1,Ki,[1],0.32 nM
same,half-life,[2],4 h
same,AUC(0-t),[3],0.279 µM·h
same,half-life,[4],3.85 h
same,half-life,[5],5.78 h
CCOc1ncccc1-c1ccc(N2CCN(C(=O)c3ccc(Cl)cc3C(F)(F)F)C[C@H]2CC)c(C(=O)NCCN)c1,Ki,[1],1.1 nM
CC[C@@H]1CN(C(=O)c2ccc(C(F)(F)F)cc2Cl)CCN1c1ccc(-c2ccccc2C#N)cc1C(=O)NCCN,Ki,[1],25 nM
CCOc1ccccc1-c1ccc(N2CCN(C(=O)C3(C(F)(F)F)CCC3)C[C@H]2CC)c(C(=O)N[C@@H]2CN3CCC2CC3)n1 [ATUMELNANT],Ki,[1],2.1 nM
same,IC50,[6],> 10000 nM
same,IC50,[7],> 10000 nM
same,IC50,[8],> 10000 nM
same,IC50,[9],> 10000 nM
same,IC50,[10],750 nM
same,IC50,[11],> 10000 nM
same,IC50,[12],> 10000 nM
same,IC50,[13],> 10000 nM
same,IC50,[14],> 10000 nM
same,clearance,[15],24.5 mL/min/kg
same,clearance,[16],14.2 mL/min/kg
same,Vd,[17],3.19 L/kg
same,Vd,[18],10.5 L/kg
same,half-life,[19],2.73 h
same,half-life,[20],9.55 h
same,Cmax,[21],1220 nM
same,Cmax,[22],650 nM
same,AUC(0-t),[23],5.2 µM·h
same,AUC(0-t),[24],4.97 µM·h
same,bioavailability,[25],47%
same,bioavailability,[26],100%
same,concentration at 0.5 h,[27],110 ng/mL
same,concentration at 0.5 h,[28],1140 ng/mL
same,concentration at […],[29],93.9 ng/mL
same,concentration at […],[30],1530 ng/mL
same,concentration at 0.5 h,[31],127 ng/mL
same,concentration at 0.5 h,[32],1460 ng/mL
same,concentration at […],[33],87.5 ng/mL
same,concentration at […],[34],1260 ng/mL
same,concentration at 0.5 h,[35],0.927 ng/mL
same,concentration at 0.5 h,[36],20 ng/mL
same,concentration at […],[37],14.1 ng/mL
same,concentration at 0.5 h,[38],0.88 ng/mL
same,half-life,[4],3.85 h
same,half-life,[5],3.85 h
same,inhibition at 10 µM,[39],> 70%
same,Papp,[40],1.9 ×10⁻⁶ cm/s
same,efflux ratio,[41],95
same,fraction unbound at 1 µM,[42],0.014
same,fraction unbound at 1 µM,[43],0.026
same,fraction unbound at 1 µM,[44],0.132
CCOc1ncccc1-c1ccc(N2CCN(C(=O)c3ccc(Cl)cc3C(F)(F)F)C[C@H]2CC)c(C(=O)NCCN(C)C)n1,Ki,[1],0.39 nM
same,half-life,[2],1.6 h
same,AUC(0-t),[3],0.349 µM·h
same,bioavailability,[45],8%
same,half-life,[4],0.383 h
same,half-life,[5],0.35 h
CCOc1ccccc1-c1ccc(N2CCN(C(=O)c3ccc(C(F)(F)F)cc3Cl)C[C@H]2CC)c(C(=O)NCCN)c1,Ki,[1],2 nM
CCOc1ncccc1-c1ccc(N2CCN(C(=O)c3ccc(Cl)cc3C(F)(F)F)C[C@H]2CC)c(C(=O)N[C@@H]2CCN(C)C2)n1,Ki,[1],0.3 nM
same,half-life,[2],2.2 h
same,AUC(0-t),[3],1.44 µM·h
same,bioavailability,[45],17%
same,half-life,[4],0.583 h
same,half-life,[5],0.717 h
CCOc1ncccc1-c1ccc(N2CCN(C(=O)C34CCC(C(F)(F)F)(CC3)CC4)C[C@H]2CC)c(C(=O)N[C@@H]2CCN(C)C2)n1,Ki,[1],0.4 nM
same,half-life,[4],1.15 h
same,half-life,[5],0.533 h
CCOc1ncccc1-c1ccc(N2CCN(C(=O)c3ccc(Cl)cc3C(F)(F)F)C[C@H]2CC)c(C(=O)NCCNC)c1,Ki,[1],0.96 nM
CCOc1ccccc1-c1ccc(N2CCN(C(=O)c3ccc(Cl)cc3C(F)(F)F)C[C@H]2CC)c(C(=O)NCCN)c1,Ki,[1],1.6 nM
CCOc1ccccc1-c1ccc(N2CCN(C(=O)C3(C(F)(F)F)CCC3)C[C@H]2CC)c(C(=O)N[C@@H]2CCN(C)C2)n1,Ki,[1],1.3 nM
same,half-life,[4],1.93 h
same,half-life,[5],3.85 h
CC[C@@H]1CN(C(=O)c2ccc(C(F)(F)F)cc2Cl)CCN1c1ccc(-c2cccc(F)c2Cl)cc1C(=O)NCCN,Ki,[1],36 nM
CC[C@@H]1CN(C(=O)c2ccc(C(F)(F)F)cc2Cl)CCN1c1ccc(-c2ccccc2F)cc1C(=O)NCCN,Ki,[1],47 nM
CCOc1ncccc1-c1ccc(N2CCN(C(=O)C3(C(F)(F)F)CCC3)C[C@H]2CC)c(C(=O)N[C@@H]2CN3CCC2CC3)n1,Ki,[1],4.4 nM
CCOc1ccccc1-c1ccc(N2CCN(C(=O)c3ccc(Cl)cc3Cl)C[C@H]2CC)c(C(=O)NCCN)c1,Ki,[1],4.8 nM
same,Cmax,[46],2.8 nM
same,AUC(0-t),[47],0.0081 µM·h
CCOc1ncccc1-c1ccc(N2CCN(C(=O)C3(C(F)(F)F)CCCC3)C[C@H]2CC)c(C(=O)N[C@@H]2CCN(C)C2)n1,Ki,[1],0.63 nM
same,half-life,[4],0.383 h
same,half-life,[5],3.85 h
CCOc1ncccc1-c1ccc(N2CCN(C(=O)C3(C(F)(F)F)CCC3)C[C@H]2CC)c(C(=O)N[C@@H]2CCN(C)C2)n1,Ki,[1],3.7 nM
same,half-life,[4],1.28 h
same,half-life,[5],> 11.6 h
